Data as given in article PMC8659110, “Preliminary Study of New Gallium-68 Radiolabeled Peptide Targeting NRP-1 to Detect Brain Metastases by Positron Emission Tomography” (Molecules, 2021).
Read-outs that look alike come from different tables or passages of the source. Where a SMILES comes first, the peptide text is derived from it. Primed or numbered codes have the meaning given here. Where no end group is shown, it is not given here. The star is where a group is joined. Cy5(nonsulfonated) = CN1C(=CC=CC=CC2=[N+](CCCCCC(=O)*)c3ccccc3C2(C)C)C(C)(C)c2ccccc21; NODAGA = O=C(O)CN1CCN(CC(=O)O)CCN(C(CCC(=O)*)C(=O)O)CC1; Cy5 = Cy5 fluorophore (fluorescent dye); NODAGA′ = chelator

Experiments:
MDA-MB-231 cells = test: Proliferation assay, real-time cell tracking (IncuCyte), MDA-MB-231; assay type: cell-based; details: for Doubling-time values (Time (h) ± SD): exponential phase
Protocol: (§1) The proliferation of MDA-MB-231 and HUVEC cells were investigated using a label-free, noninvasive IncuCyte® S3 live-cell imaging system (Sartorius, Germany). Cells were plated as described for metabolic activity placed in an incubator (Binder) at 37 °C. Cells were photographed at 2-h intervals using a 20× objective over several days. […] Phase–object confluence was calculated at each time point based on the segmentation of high-definition phase-contrast images using IncuCyte S3 2018B software and expressed in percentages. Experiments were performed in triplicate.
(§2) Cell doubling time (DT) was calculated using the following Equation (1):(1) DT=Tend−TstartLn2/LnCend−LnCstart where Tstart/Tend are the times at the start/end of the exponential growth phase. Cstart/Cend are the percentage of confluence of the cells at the start/end of the exponential growth phase.

HUVEC cells = test: Proliferation assay, real-time cell tracking (IncuCyte), HUVEC; assay type: cell-based, human; details: for Doubling-time values (Time (h) ± SD): exponential phase
Protocol: as §1, §2

[1] = biological target: T1, recombinant rat NRP-1 protein (Rattus norvegicus, UniProt Q9QWJ9); test: Surface plasmon resonance (SPR) on immobilized recombinant NRP-1; assay type: binding; details: Figure S5, injected at 10 and 30 µM
T1 construct: purchased Bio-techne (France)
Description: (§3) We evaluated the binding capacity of compounds toward NRP-1 using two different techniques: (1) a competitive binding assay with biotinylated VEGF (b-VEGF-165), a natural ligand of NRP-1 immobilized on a microplate surface in the presence of heparin, which allowed calculating the IC50 (the concentration of compound that displaced 50% of b-VEGF-165), and (2) surface plasmon resonance (SPR), a sensitive, optical-based, label-free detection technology for the real-time monitoring of molecular interactions between injected analytes and ligands covalently attached to the surface of a sensor chip. This technique was used to calculate the KD. VEGF-165 was used as the positive control in these two techniques.
The equilibrium dissociation constant (KD) was evaluated using surface plasmon resonance, based on Gries et al.. All experiments were performed at 25 °C using the BIACORE T200 instrument (GE Healthcare Biacore, Uppsala, Sweden). Sensor surfaces and other Biacore consumables were purchased from GE Healthcare Biacore (USA). […]
They flowed at a rate of 30 µL/min for 300 s at 25 °C. […] The equilibrium response was recorded 5 s before the end of the compound injection (time window: 5 s). […] The KD value was determined by fitting the response (RU) versus analyte concentration (µM) curve to a simple 1:1 interaction model with the BiaEvaluation 3.2 software (GE Healthcare). […]

[2] = system: NRP-1 recombinant chimeric protein; test: Competitive binding assay with biotinylated VEGF-165 on recombinant NRP-1; details: for Concentration needed to decrease the binding of b-VEGF-165 to NRP-1: only at high concentration; for IC50: in the presence of heparin, 2 h at room temperature, read-out: IC50 ± SD (displacement of 50% of b-VEGF-165)
Description: as §3
The binding of compounds for the NRP-1 protein was evaluated in terms of the half-maximal inhibitory concentration (IC50 values) through a competitive assay, as previously described. VEGF-165, the natural ligand of NRP-1, was used as the positive control. Briefly, the surfaces of Maxisorp microplates (Thermo Fisher Scientific, France) were coated with NRP-1 recombinant chimeric proteins (Bio-techne, France). The binding of compounds to NRP-1 was assessed using biotinylated VEGF-165 (b-VEGF-165) (AcroBioSystem, Interchim, France) in the presence of heparin (Bio-techne, France) in competition or not with various concentrations of compounds or unlabeled VEGF-165 (Bio-techne, France) as the positive control. After 2 h of incubation at room temperature, the plates were washed, and the amount of bound b-VEGF-165 was stained with streptavidin horseradish peroxidase conjugate (Bio-techne, France) and assayed. […] The results were expressed as the mean of the relative absorbance percentage to wells containing only blocking buffers of triplicate measurements. The affinities were estimated as the IC50 values (i.e., the concentration of compounds that displaced 50% of β-VEGF-165 binding) calculated using the one-site fit log-IC50 nonlinear analysis regression of GraphPad Prism 6 software (v 6.05, USA).

[3] = Photophysical properties (absorption and fluorescence) in water; assay type: physicochemical; details: for Fluorescence quantum yield (φF): λex = 590 nm
Protocol: All reactions involving cyanine5 compounds were performed in the dark. Preparative reverse-phase high-performance liquid chromatography (HPLC) was performed on SPOT PREP Liquid Chromatography (ARMEN Instrument, Saint-Avé, France) with a Pursuit 5-C18 column (5 μm, 21.2 × 150 mm; Varian). Pure compounds obtained were analyzed accordingly by LC-MS on a Shimadzu LCMS-2020 monitored by a Diode Array Detector SPD-M20A (Shimadzu, Marne la Vallée, France) using a Pursuit 5-C18 column (4.6 × 150 mm; Varian) (Varian, Agilent Technologies, Santa Clara, CA, USA). Absorption spectra were recorded on a Perkin-Elmer Lambda EZ210 (Perkin-Elmer, Courtaboeuf, France) double-beam UV–visible spectrophotometer. Fluorescence spectra were recorded on a Fluorolog-3 spectrofluorometer FL3-222 (Horiba Jobin Yvon, Longjumeau, France) with a thermostated cell compartment (25 °C) using a 450-W Xenon lamp. The fluorescence quantum yield (φF) was determined using tetraphenyl porphyrin (TPP) solution in toluene as the fluorescence standard (φF = 0.11).

NRP-1 protein = system: NRP-1 protein; design: method as in PMID 19464192, PMID 25645959; details: previous studies; cited from earlier work
[4] = system: MDA-MB-231 tumor in the rat brain; design: species or system nude rat; details: in vivo
Protocol: Breast cells from the MDA-MB-231 lineage (MDA-MB-231 (ATCC® HTB-26)) were induced by the vascular injection of 2.5 × 10^5 cells resuspended in a volume of 50 µL of RPMI medium (Merck, Molsheim, France) into the animal’s internal carotid.
PET recordings were obtained with a camera dedicated to small animal studies (Inveon, Siemens Preclinical Solutions, Knoxville, TN, USA). After rats anesthetized with isoflurane, 50 MBq of [^68Ga]Ga-NODAGA-K(Cy5)DKPPR (1st day) were injected as a bolus via a lateral tail vein. […]
The uptake values are expressed in SUV (Standardized Uptake Values), which are standardized fixation values relative to the animal’s weight and injected activity. Tissue time activity curves (TTACs) for tumors and various organ activities were determined by average SUVs in volumes of interest (VOI), which were drawn with dedicated software (Inveon Research Workplace 4.1, Siemens®, Knoxville, USA) on static images encompassing the whole acquisition. […]

[5] = assay type: physicochemical; details: 2 h
Protocol: (§4) The stability of [^68Ga]Ga-NODAGA-K(Cy5)DKPPR was performed in various media, final formulated media, and plasma.
The final [^68Ga]Ga-NODAGA-K(Cy5)DKPPR was kept at room temperature and analyzed by radio-HPLC at the end of the synthesis and 1 h, 2 h, and 3 h after manufacturing.

[6] = assay type: in vitro ADME, rodent
Protocol: as §4
For the stability in plasma, 100 µL of [^68Ga]Ga-NODAGA-K(Cy5)DKPPR was added to 400 µL of fresh rodent plasma and was incubated at 37 °C for 0, 30, 60, and 120 min. After incubation, the solutions were treated with 400 µL of acetonitrile to precipitate the proteins, vortexed for 1 min, and then centrifuged (2500 rpm, 980 G, 5 min). The supernatant layer was analyzed by analytical radio-HPLC.

NRP-1 = biological target: NRP-1; design: method as in PMID 22372770; details: read-out: KD previously found; cited from earlier work

| Molecule | Doubling-time values (Time (h) ± SD) (MDA-MB-231 cells; MDA MB 231, 1 µM) [h] | Doubling-time values (Time (h) ± SD) (MDA-MB-231 cells; MDA MB 231, 10 µM) [h] | Doubling-time values (Time (h) ± SD) (HUVEC cells; 1 µM) [h] | Doubling-time values (Time (h) ± SD) (HUVEC cells; 10 µM) [h] | Molar extinction coefficient (ε) [3] | Fluorescence quantum yield (φF) [3] [%] | IC50 [2] [µM] | further results |
| --- | --- | --- | --- | --- | --- | --- | --- | --- |
| ^natGa-NODAGA-K(Cy5)RPKPD ({NODAGA′}-K(Cy5)RPKPD; also: NODAGA complexed with natGa) | 33 ± 1 | 33 ± 3 | 27 ± 1 | 28 ± 1 | 39,870 L mol^−1 cm^−1 | 79 | – | SPR interaction toward NRP-1 (shape of curve) [1]: weak affinity or a nonspecific interaction; Concentration needed to decrease the binding of b-VEGF-165 to NRP-1 [2]: > 100 µM |
| VEGF-165: natural ligand of NRP-1, positive control | – | – | – | – | – | – | – | Shift of b-VEGF-165 binding to the receptor ([2]; used at 26 nM, positive control, data not shown): completely shifted |
| C[N+]1=C(C=CC=CC=C2N(CCCCCC(=O)ON3C(=O)CCC3=O)c3ccccc3C2(C)C)C(C)(C)c2ccccc21.[Cl-] [Cy5-NHS, Cyanine5-NHS ester, reference compound] | – | – | – | – | 209,000 L mol^−1 cm^−1 | 27 | – | – |
| ATWLPPR [ligand peptide of NRP-1 from previous studies] | – | – | – | – | – | – | – | IC50 (NRP-1 protein): 19 µM |
| [^68Ga]Ga-NODAGA-K(Cy5)DKPPR | – | – | – | – | – | – | – | Time to plateau of normalized tumor TTAC after injection [4]: roughly 10 min; In vitro stability, remaining stable [5]: > 95%; In vitro stability (time) [6]: > 120 min; In vitro stability, remaining stable ([6]; plasma, 2 h): > 95% |
| H-KDKPPR-OH [KDKPPR] | 32 ± 1 | 33 ± 2 | 29 ± 2 | 30 ± 2 | – | – | 2 ± 1 | Kd (NRP-1): 8.7 µM |
| CN1C(=CC=CC=CC2=[N+](CCCCCC(=O)NCCCC[C@H](NC(=O)CCC(C(=O)O)N3CCN(CC(=O)O)CCN(CC(=O)O)CC3)C(=O)N[C@@H](CC(=O)O)C(=O)N[C@@H](CCCCN)C(=O)N3CCC[C@H]3C(=O)N3CCC[C@H]3C(=O)N[C@@H](CCCNC(=N)N)C(=O)O)c3ccccc3C2(C)C)C(C)(C)c2ccccc21 (stereo partly shown) [^natGa-NODAGA-K(Cy5)DKPPR, metal not drawn] ({NODAGA}-K(Cy5(nonsulfonated))DKPPR-OH; C-terminus assumed) | 31 ± 1 | 32 ± 1 | 30 ± 3 | 28 ± 2 | 44,552 L mol^−1 cm^−1 | 61 | 0.1 | Proliferation of cells (confluence follow-up) (MDA-MB-231 cells; MDA-MB-231, 0–10 µM): did not modify; Proliferation of cells (confluence follow-up) (HUVEC cells; 0–10 µM): did not modify |
| KRPKPD | – | – | – | – | – | – | 300 | SPR interaction toward NRP-1 (shape of curve) [1]: weak affinity or a nonspecific interaction; Concentration needed to decrease the binding of b-VEGF-165 to NRP-1 [2]: > 100 µM |
